Measured values as given in US6113896A, “Pharmaceutical compositions containing ecotin and homologs thereof” (priority 1994, dated 2000).

Assays:
[1] = biological target: HLE (human leukocyte elastase); assay: Equilibrium inhibition constant with HLE; assay type: biochemical; conditions: apparent value, 0.08 mM MeOSuc-Ala-Ala-Pro-Val-MCA
Procedure: Determination of Equilibrium Inhibition Constants Apparent Ki values (Ki *) for the inhibition of the enzymes tested by ecotin and mutants were measured as follows. All reactions were performed at 25° C. Stock solutions of trypsin were quantitated by active site burst titration with MUGB as previously described (Jameson, G. W. et al., Biochem. J. 131:107-117 [1973]) using a Fluoroskan II plate reader at excitation wavelength of 355 nm and emission wavelength of 460 nm. Data was collected on a Macintosh SE20 using either Delta Soft II Fl v3.31 software (BioMetallics). Active site titrated trypsin was then used to quantitate ecotin active sites using BAPA as the substrate; a stoichiometry of 1:1 was assumed (Chung, C. H. et al., supra). Factor Xa, Factor XIIa, plasma kallikrein, or HLE were then quantitated by active site titration using ecotin as a standard, again assuming 1:1 stoichiometry. In addition, the concentration of HLE was quantitated by methods previously described using a calibrated stock of α1 -proteinase inhibitor to titrate the HLE active sites (Beatty, K. et al., J. Biol. Chem. 255:3931-3934 [1980]); the same HLE active site concentration was determined using both ecotin and α1 -proteinase inhibitor. […]

[2] = tested on: FXa; assay: FXa association rate constant; assay type: biochemical, human
Procedure: Determination of FXa association rate constants The association rate of ecotin with FXa was determined as follows. At reference time zero, ecotin (7 nM final concentration) was added to FXa (5 nM final concentration) and TNCT buffer in a total volume of 3.0 ml. Immediately thereafter, 150 μl aliquots were removed at intervals over a period of 10 min and added to microtiter wells containing 50 μl 5 mM Spectrozyme fXa. The absorbance of the wells was monitored at 405 nm. Initial rates were determined for each well using the initial linear portion of each data set. The concentration of free enzyme versus time was plotted and the curves fitted to equation 4; values for kon were determined by nonlinear regression analysis.
The rate of association of a reversible inhibitor with enzyme is given by equation 2: [formula] Since measurements were made during the initial phase of the reaction, where dissociation of the E·I complex is negligible, the second term of equation 2 can be ignored. Therefore the rate of association is given by equation 3: [formula] […] The association rate constant for ecotin with FXa was determined by measuring free enzyme as a function of time and fitting the data to equation (4) by nonlinear regression analysis. A value for kon =(1.35±0.08)×10^6 M^-1 s^-1 was calculated for ecotin with FXa (FIG. 4A); kon values for ecotin mutants are shown in Table I.

## Ecotin: E. coli periplasmic protein having the 142 amino acid residue sequence reported by McGrath et al.; recombinant, P1 Met84
[1]
  Ki: 0.05 nM
[2]; ca. 500 nM ecotin, maximum FXa concentration in blood ca. 200 nM
  time for complete inhibition of FXa: approximately 7.4 sec
[2]; full power of ten printed
  association rate constant (kon) with FXa: 1.35e+06 M⁻¹ s⁻¹
